# Test results: ChEMBL document CHEMBL1135216, “New 2-(1-adamantylcarbonyl)pyridine and 1-acetyladamantane thiosemicarbazones-thiocarbonohydrazones: cell growth inhibitory, antiviral and antimicrobial activity evaluation” (Bioorg Med Chem Lett, 2002)
# pEC50: −log10 of the molar value.
# Tests used:
# HL-60 [1] = experiment: Tested for the concentration required to reduce the viability of leukemia cells by 50% against cell growth of HL60 acute myeloid leukemia using MTT assay; type: functional; details: Homo sapiens, read-out: LC50 (the source's name)
# Vero [2] = experiment: Tested for cytotoxic activity in African green monkey kidney cells (Vero); type: functional; details: Chlorocebus sabaeus
# MT4 [3] = experiment: Tested for cytotoxic concentration required to reduce the viability of MT-4 cells by 50%; type: functional, cell-based; details: Homo sapiens, read-out: EC50 (the source's name)
# K562 [4] = experiment: Tested for the inhibitory concentration against cell growth of K562 chronic myeloid leukemia using MTT assay; type: functional; details: Homo sapiens
# HEL [5] = experiment: Tested for antiviral activity against thymidine kinase deficient Varicella zoster virus in human embryonic lung fibroblasts; type: functional
# Vero [6] = experiment: Tested for antiviral activity against Punta toro virus in African green monkey kidney cell (Vero); type: functional; details: Chlorocebus sabaeus
# MOLT-4 [7] = experiment: Tested for the inhibitory concentration against cell growth of human leukemic cell line MOLT-4; type: functional
# HeLa [8] = experiment: Tested for cytotoxic activity in human epithelial cell line (HeLa); type: functional
# E6SM [9] = experiment: Tested for antiviral activity against VSV-virus in human embryonic skin muscle fibroblasts; type: functional; details: Muscle tissue
# MOLT-4 [10] = experiment: Tested for the inhibitory concentration against cell growth of Tcell leukemic cell line MOLT-4 using MTT assay; type: functional; details: Homo sapiens
# Staphylococcus hominis = experiment: Tested for the antimicrobial activity against Staphylococcus hominis ATCC 27844; type: functional
# E6SM [11] = experiment: Antiviral activity against thymidine kinase-deficient (TK-HSV-1)virus in E6SM cell line(human embryonic skin-muscle fibroblasts); type: functional
# CCRF-CEM [12] = experiment: Tested for the inhibitory concentration against cell growth of human leukemic cell line CCRF-CEM; type: functional
# E6SM [13] = experiment: Tested for antiviral activity against herpes simplex virus type 1(KOS) in E6SM cell line(human embryonic skin-muscle fibroblasts); type: functional
# CCRF-CEM [14] = experiment: Tested for the inhibitory concentration against cell growth of Tcell leukemic cell line CCRF-CEM using MTT assay; type: functional; details: Homo sapiens
# Vero [15] = experiment: Tested for antiviral activity against Sindbis virus in African green monkey kidney cell (Vero); type: functional; details: Chlorocebus sabaeus
# E6SM [16] = experiment: Tested for antiviral activity against thymidine kinase-deficient (TK-HSV-2G) virus in E6SM cell line(human embryonic skin-muscle fibroblasts)
# HeLa [17] = experiment: Tested for antiviral activity against coxsackie-B4 virus in human epithelial cell line; type: functional
# HL-60 [18] = experiment: Tested for the inhibitory concentration against cell growth of human leukemic cell line HL60; type: functional
# RPMI-8226 [19] = experiment: Tested for the inhibitory concentration against cell growth of human leukemic cell line RPMI8226; type: functional
# RPMI-8226 [20] = experiment: Tested for the inhibitory concentration against cell growth of […] multiple myeloma using MTT assay; type: functional; details: Homo sapiens
# HL-60 [21] = experiment: Tested for the inhibitory concentration against cell growth of HL60 acute myeloid leukemia using MTT assay; type: functional; details: Homo sapiens
# E6SM [22] = experiment: Tested for antiviral activity against vaccinia virus in human embryonic skin muscle fibroblast; type: functional; details: Muscle tissue
# Vero [23] = experiment: Tested for antiviral activity against coxsackie B-4 virus in African green monkey kidney cell (Vero); type: functional; details: Chlorocebus sabaeus
# MT4 [24] = experiment: Tested for effective concentration required to protect MT-4 cells against the cytopathicity of HIV-1(IIIB); type: functional; details: Homo sapiens, read-out: LC50 (the source's name)
# CCRF-CEM [25] = experiment: Tested for the concentration required to reduce the viability of leukemia cells by 50% against cell growth of T cell leukemia cell line CCRF-CEM using MTT assay; type: functional; details: Homo sapiens
# E6SM [26] = experiment: (§1) The compound was tested for antiviral activity against VSV-virus in human epithelial cells; type: functional
# HuT78 [27] = experiment: Tested for the inhibitory concentration against cell growth of human leukemic cell line HuT78; type: functional
# HEL [28] = experiment: Tested for antiviral activity against thymidine kinase wild type Varicella zoster virus in human embryonic lung fibroblast; type: functional
# Vero [29] = experiment: Tested for antiviral activity against parainfluenza virus in african green monkey kidney cell (Vero); type: functional; details: Chlorocebus sabaeus
# Escherichia coli = experiment: Tested for the antimicrobial activity against Escherichia coli ATCC 25922; type: functional
# E6SM [30] = experiment: Tested for cytotoxic activity in human embryonic skin muscle fibroblast (E6SM); type: functional; details: Muscle tissue
# Vero [31] = experiment: Tested for antiviral activity against Reo-1 virus in African green monkey kidney cell (Vero); type: functional; details: Chlorocebus sabaeus
# MOLT-4 [32] = experiment: Tested for the concentration required to reduce the viability of leukemia cells by 50% against cell growth of T cell leukemia cell line MOLT-4 using MTT assay; type: functional; details: Homo sapiens
# K562 [33] = experiment: Tested for the inhibitory concentration against cell growth of human leukemic cell line K562; type: functional
# RPMI-8226 [34] = experiment: Tested for the concentration required to reduce the viability of leukemia cells by 50% against cell growth of RPMI8226 multiple myeloma using MTT assay; type: functional; details: Homo sapiens, read-out: LC50 (the source's name)
# HuT78 [35] = experiment: Tested for the inhibitory concentration against cell growth of HuT78 T lymphoma using MTT assay; type: functional; details: Homo sapiens
# MT4 [36] = experiment: Tested for effective concentration required to protect MT-4 cells against the cytopathicity of HIV-2(ROD); type: functional, cell-based; details: Homo sapiens
# HuT78 [37] = experiment: Tested for the concentration required to reduce the viability of leukemia cells by 50% against cell growth of HuT78 T lymphoma using MTT assay; type: functional; details: Homo sapiens
# [38] = test system: Staphylococcus epidermidis; experiment: Tested for the antimicrobial activity against Staphylococcus epidermidis ATCC 12228; type: functional
# HEL [39] = experiment: Tested for cytotoxic activity in human embryonic lung fibroblast (HEL); type: functional
# Klebsiella pneumoniae = experiment: Tested for the antimicrobial activity against Klebsiella pneumoniae ATCC 13883; type: functional
# HEL [40] = experiment: Tested for antiviral activity against human cytomegalovirus (AD-169) in human embryonic lung fibroblasts; type: functional
# Staphylococcus aureus = experiment: Tested for the antimicrobial activity against Staphylococcus aureus ATCC 6538; type: functional
# K562 [41] = experiment: Tested for the concentration required to reduce the viability of leukemia cells by 50% against cell growth of K562 chronic myeloid leukemia using MTT assay; type: functional; details: Homo sapiens, read-out: LC50 (the source's name)
# HeLa [42] = experiment: as §1; type: functional
# E6SM [43] = experiment: Tested for antiviral activity against thymidine kinase-deficient (TK-HSV-2G) virus in E6SM cell line(human embryonic skin-muscle fibroblasts); type: functional
structure (smiles),measurement,setting,value
C/C(=N/N=C(\N)S)C12CC3CC(CC(C3)C1)C2,CC50,HL-60 [1],63.6 µM
same,MCC,Vero [2],400 µg/mL
same,CC50,MT4 [3],7.5 µM
same,TGI,K562 [4],10.4 µM
same,MIC,HEL [5],> 2 µg/mL
same,MIC,Vero [6],> 80 µg/mL
same,GI50,MOLT-4 [7],2.3 µM
same,MCC,HeLa [8],400 µg/mL
same,MIC,E6SM [9],> 400 µg/mL
same,TGI,MOLT-4 [10],9.3 µM
same,MIC,Staphylococcus hominis,> 3980 µg/mL
same,MIC,E6SM [11],> 400 µg/mL
same,GI50,CCRF-CEM [12],23.6 µM
same,MIC,E6SM [13],240 µg/mL
same,TGI,CCRF-CEM [14],55.2 µM
same,MIC,Vero [15],> 80 µg/mL
same,MIC,E6SM [16],> 80 µg/mL
same,MIC,HeLa [17],> 80 µg/mL
same,GI50,HL-60 [18],5.2 µM
same,GI50,RPMI-8226 [19],7.1 µM
same,TGI,RPMI-8226 [20],33.3 µM
same,TGI,HL-60 [21],24.1 µM
same,MIC,E6SM [22],> 400 µg/mL
same,MIC,Vero [23],> 80 µg/mL
same,pEC50,MT4 [24],< 5.10
same,TGI,CCRF-CEM [25],86.7 µM
same,MIC,E6SM [26],240 µg/mL
same,GI50,HuT78 [27],2.3 µM
same,MIC,HEL [28],> 2 µg/mL
same,MIC,Vero [29],> 80 µg/mL
same,MIC,Escherichia coli,> 3980 µg/mL
same,MCC,E6SM [30],> 400 µg/mL
same,MIC,Vero [31],> 80 µg/mL
same,TGI,MOLT-4 [32],59.4 µM
same,GI50,K562 [33],2.8 µM
same,CC50,RPMI-8226 [34],69.2 µM
same,TGI,HuT78 [35],29.1 µM
same,pEC50,MT4 [36],< 5.10
same,TGI,HuT78 [37],83.1 µM
same,MIC,[38],> 3980 µg/mL
same,MCC,HEL [39],5 µg/mL
same,MIC,Klebsiella pneumoniae,> 3980 µg/mL
same,MIC,HEL [40],> 2 µg/mL
same,MIC,Staphylococcus aureus,> 3980 µg/mL
same,CC50,K562 [41],62.6 µM
C/C(=N/N=C(/S)NN)C12CC3CC(CC(C3)C1)C2,CC50,HL-60 [1],100 µM
same,MCC,Vero [2],80 µg/mL
same,CC50,MT4 [3],7.1 µM
same,TGI,K562 [4],68.4 µM
same,MIC,HEL [5],> 20 µg/mL
same,MIC,Vero [6],> 80 µg/mL
same,GI50,MOLT-4 [7],22.2 µM
same,MCC,HeLa [8],80 µg/mL
same,MIC,E6SM [9],> 16 µg/mL
same,TGI,MOLT-4 [10],100 µM
same,MIC,Staphylococcus hominis,> 3760 µg/mL
same,MIC,E6SM [11],> 16 µg/mL
same,GI50,CCRF-CEM [12],36.8 µM
same,MIC,E6SM [13],> 16 µM
same,TGI,CCRF-CEM [14],100 µM
same,MIC,Vero [15],> 80 µg/mL
same,MIC,HeLa [17],> 16 µg/mL
same,GI50,HL-60 [18],48.7 µM
same,GI50,RPMI-8226 [19],94.2 µM
same,TGI,RPMI-8226 [20],100 µM
same,TGI,HL-60 [21],92 µM
same,MIC,E6SM [22],> 16 µg/mL
same,MIC,Vero [23],> 80 µg/mL
same,pEC50,MT4 [24],< 5.15
same,TGI,CCRF-CEM [25],100 µM
same,MIC,HeLa [42],> 16 µg/mL
same,GI50,HuT78 [27],20.5 µM
same,MIC,HEL [28],10.5 µg/mL
same,MIC,Vero [29],> 80 µg/mL
same,MIC,Escherichia coli,> 3760 µg/mL
same,MCC,E6SM [30],> 80 µg/mL
same,MIC,Vero [31],> 80 µg/mL
same,TGI,MOLT-4 [32],100 µM
same,GI50,K562 [33],14.7 µM
same,CC50,RPMI-8226 [34],100 µM
same,TGI,HuT78 [35],100 µM
same,pEC50,MT4 [36],< 5.15
same,TGI,HuT78 [37],100 µM
same,MIC,[38],> 3760 µg/mL
same,MCC,HEL [39],> 20 µg/mL
same,MIC,Klebsiella pneumoniae,> 3760 µg/mL
same,MIC,HEL [40],> 5 µg/mL
same,MIC,Staphylococcus aureus,> 3760 µg/mL
same,MIC,E6SM [43],> 16 µg/mL
same,CC50,K562 [41],100 µM
C/C(=N/N=C(/S)N/N=C(\S)c1ccc(Cl)cc1Cl)C12CC3CC(CC(C3)C1)C2,CC50,HL-60 [1],10 µM
same,MCC,Vero [2],16 µg/mL
same,CC50,MT4 [3],2.4 µM
same,TGI,K562 [4],100 µM
same,MIC,HEL [5],> 2 µg/mL
same,MIC,Vero [6],> 3.2 µg/mL
same,GI50,MOLT-4 [7],32.4 µM
same,MCC,HeLa [8],16 µg/mL
same,MIC,E6SM [9],> 16 µg/mL
same,TGI,MOLT-4 [10],100 µM
same,MIC,Staphylococcus hominis,133 µg/mL
same,MIC,E6SM [11],9.6 µg/mL
same,GI50,CCRF-CEM [12],5.7 µM
same,MIC,E6SM [13],> 16 µg/mL
same,TGI,CCRF-CEM [14],100 µM
same,MIC,Vero [15],> 3.2 µg/mL
same,MIC,HeLa [17],> 3.2 µg/mL
same,GI50,HL-60 [18],2.4 µM
same,GI50,RPMI-8226 [19],3.6 µM
same,TGI,RPMI-8226 [20],29.3 µM
same,TGI,HL-60 [21],6.2 µM
same,MIC,E6SM [22],> 16 µg/mL
same,MIC,Vero [23],> 3.2 µg/mL
same,pEC50,MT4 [24],< 5.70
same,TGI,CCRF-CEM [25],100 µM
same,MIC,HeLa [42],> 3.2 µg/mL
same,GI50,HuT78 [27],8.1 µM
same,MIC,HEL [28],> 2 µg/mL
same,MIC,Vero [29],> 3.2 µg/mL
same,MIC,Escherichia coli,> 2130 µg/mL
same,MCC,E6SM [30],80 µg/mL
same,MIC,Vero [31],> 3.2 µg/mL
same,TGI,MOLT-4 [32],100 µM
same,GI50,K562 [33],24.7 µM
same,CC50,RPMI-8226 [34],100 µM
same,TGI,HuT78 [35],100 µM
same,pEC50,MT4 [36],< 5.70
same,TGI,HuT78 [37],100 µM
same,MIC,[38],133 µg/mL
same,MCC,HEL [39],5 µg/mL
same,MIC,Klebsiella pneumoniae,> 2130 µg/mL
same,MIC,HEL [40],> 2 µg/mL
same,MIC,Staphylococcus aureus,133 µg/mL
same,MIC,E6SM [43],9.6 µg/mL
same,CC50,K562 [41],100 µM
